Literature values, collected in US20110111022A1, “PHARMACEUTICAL FORMULATION” (priority 2008, published 2011).

Key:
[1] = biological target: hepatic cytochrome P450 3A4 (Homo sapiens, UniProt P08684)
[2] = concurrent administration of aliskiren and irbesartan

Chain of hepatic cytochrome P450 3A4 (P08684 whole entry): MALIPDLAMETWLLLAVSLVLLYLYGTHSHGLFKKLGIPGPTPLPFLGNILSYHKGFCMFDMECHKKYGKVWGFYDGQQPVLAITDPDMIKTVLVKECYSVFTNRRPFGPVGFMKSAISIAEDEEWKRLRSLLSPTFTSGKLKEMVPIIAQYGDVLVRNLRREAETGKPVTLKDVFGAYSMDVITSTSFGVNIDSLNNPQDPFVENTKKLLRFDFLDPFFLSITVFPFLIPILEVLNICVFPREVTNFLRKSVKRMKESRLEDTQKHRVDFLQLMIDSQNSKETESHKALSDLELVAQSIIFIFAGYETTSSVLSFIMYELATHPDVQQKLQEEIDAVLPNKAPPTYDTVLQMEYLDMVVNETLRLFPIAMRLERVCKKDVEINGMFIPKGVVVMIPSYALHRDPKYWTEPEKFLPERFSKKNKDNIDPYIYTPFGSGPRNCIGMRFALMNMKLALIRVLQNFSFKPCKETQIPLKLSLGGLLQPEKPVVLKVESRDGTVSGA

solubility in water: easily soluble in water
decrease in blood aliskiren level [2]: 50%
SMILES: COCCCOc1cc(C[C@@H](C[C@H](N)[C@@H](O)C[C@H](C(=O)NCC(C)(C)C(N)=O)C(C)C)C(C)C)ccc1OC [aliskiren, 2(S),4(S),5(S),7(S)—N-(3-amino-2,2-dimethyl-3-oxopropyl)-2,7-di(1-methylethyl)-4-hydroxy-5-amino-8-[4-methoxy-3-(3-methoxy-propoxy)phenyl]-octanamide]
metabolism in in vitro experiments [1]: metabolized by hepatic cytochrome P450 3A4
